Results published in article PMC10706121, “Bioactive Polyketides from the Natural Complex of the Sea Urchin-Associated Fungi Penicillium sajarovii KMM 4718 and Aspergillus protuberus KMM 4747” (International Journal of Molecular Sciences, 2023).
≈ marks a conversion by molar mass, not a printed value. Entries after “also recorded” stand apart in the source; their conditions may differ. Where two headings read alike, the source gives them in different places.

Assays:
[1] = Cell viability assay (MTT), cytotoxic activity; format: cell-based, human; conditions: 24 h, MTT; for viability at 24 h, 10 µM / viability at 24 h, 100 µM: percent of control
Protocol: The HepG2 and H9c2 cells were cultured in DMEM medium (Biolot, St. Petersburg, Russia) containing 10% fetal bovine serum (Biolot, St. Petersburg, Russia) and 1% penicillin/streptomycin (Biolot, St. Petersburg, Russia) at 37 °C in a humidified atmosphere with 5% (v/v) CO2.
The HepG2 and H9c2 cells were seeded at concentrations of 5× 10^3 and 3×10^3 cell/well, respectively, and the experiments were started after 24 h. The compounds at concentrations up to 100 µM were added into the wells for 24 h, and the viability of the cells was measured by an MTT (3-(4,5-dimethylthiazol-2-yl)-2,5-diphenyltetrazolium bromide) assay, which was performed according to the manufacturer’s instructions (Sigma-Aldrich, Munich, Germany). All compounds were dissolved with DMSO so that the final concentration of DMSO in the cell culture was not more than 1%. Moreover, DMSO was used as a control. The absorbance of the resulting solution was measured at 570 nm with a microplate reader MultiscanFC (ThermoLabsystems Inc., Beverly, MA, USA). The results are presented as a percent of the control data and calculated IC50.

[2] = tested on: Staphylococcus aureus ATCC 21027; test: Antimicrobial activity, inhibition of microbial growth (OD620); format: cell-based; conditions: Staphylococcus aureus, ATCC21027, compounds tested at 100 µM; read-out: Inhibition of Microbial Growth, S. aureus
Protocol: (§1) The yeast-like fungi of Candida albicans KMM 455 and bacterial strains Staphylococcus aureus ATCC 21027 and Escherichia coli VKPM (B-7935) (Collection of Marine Microorganisms PIBOC FEB RAS) were cultured on solid-medium Mueller Hinton broth with agar (16.0 g/L) in a Petri dish at 37 °C for 24 h.
(§2) The assays were performed in 96-well microplates in appropriate Mueller Hinton broth. Each well contained 90 µL of bacterial or of a yeast-like fungi suspension (10^9 CFU/mL). Then, 10 µL of a compound diluted at concentrations ranging from 1.5 to 100.0 µM using a 2-fold dilution was added (DMSO concentration < 1%). Culture plates were incubated overnight at 37 °C, and the OD620 was measured using a Multiskan FS spectrophotometer (Thermo Scientific Inc., Beverly, MA, USA). The antibiotic gentamicin and antifungal agent nitrofungin were used as positive controls at 1 mg/mL; 1% DMSO in PBS served as a negative control.

[3] = tested on: Candida albicans KMM 455; test: as above; format: cell-based; conditions: Candida albicans, KMM455; compounds tested at 100 µM; read-out: Inhibition of Microbial Growth, C. albicans
Protocol: as §1, §2

[4] = tested on: Escherichia coli VKPM (B-7935); test: as above; format: cell-based; conditions: Escherichia coli, compounds tested at 100 µM; read-out: Inhibition of Microbial Growth, E. coli
Protocol: as §1, §2

[5] = tested on: Pseudomonas fluorescens; design: method as in doi:10.1007/s11274-009-0062-y; conditions: cited from earlier work
[6] = tested on: Bacillus subtilis; design: method as in doi:10.1007/s11274-009-0062-y; conditions: cited from earlier work
[7] = tested on: Escherichia coli; design: method as in doi:10.1007/s11274-009-0062-y; conditions: cited from earlier work
[8] = molecular target: T1, urease from Canavalia ensiformis (Canavalia ensiformis, UniProt P07374); test: Urease inhibition assay (indophenol method, cell-free); format: biochemical
T1 construct: purchased Sigma
T1 sequence (P07374 whole entry, looked up): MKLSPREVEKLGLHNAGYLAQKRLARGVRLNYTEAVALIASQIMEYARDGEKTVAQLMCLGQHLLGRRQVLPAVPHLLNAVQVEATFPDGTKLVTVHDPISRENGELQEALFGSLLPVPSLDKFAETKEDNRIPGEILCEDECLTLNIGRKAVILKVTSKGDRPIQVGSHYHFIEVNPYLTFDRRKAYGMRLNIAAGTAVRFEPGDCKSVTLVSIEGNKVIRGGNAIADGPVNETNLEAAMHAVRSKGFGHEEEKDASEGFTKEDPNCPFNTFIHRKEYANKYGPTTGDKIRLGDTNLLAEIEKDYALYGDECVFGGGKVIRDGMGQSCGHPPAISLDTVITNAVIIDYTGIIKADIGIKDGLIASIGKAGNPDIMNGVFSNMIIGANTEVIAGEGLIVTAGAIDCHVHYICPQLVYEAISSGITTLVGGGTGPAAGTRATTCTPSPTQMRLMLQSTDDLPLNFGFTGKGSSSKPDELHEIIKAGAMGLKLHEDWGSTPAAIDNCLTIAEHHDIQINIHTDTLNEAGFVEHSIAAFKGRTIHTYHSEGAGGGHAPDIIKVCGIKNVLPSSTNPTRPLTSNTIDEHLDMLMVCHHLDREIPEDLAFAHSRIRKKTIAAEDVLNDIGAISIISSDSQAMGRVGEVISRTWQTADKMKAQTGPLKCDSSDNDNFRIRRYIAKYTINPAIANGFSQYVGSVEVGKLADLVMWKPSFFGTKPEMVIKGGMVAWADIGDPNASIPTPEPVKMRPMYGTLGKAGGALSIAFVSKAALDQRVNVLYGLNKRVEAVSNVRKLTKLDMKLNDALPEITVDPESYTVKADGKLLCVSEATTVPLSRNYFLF
Protocol: A reaction mixture consisting of 25 µL of enzyme solution (urease from Canavalia ensiformis, Sigma, 1U final concentration) and 5 µL of test compounds dissolved in water (10–300.0 µM final concentration) was preincubated at 37 °C for 60 min in 96-well plates. Then, 55 µL of phosphate-buffered solution with […] of urea was added to each well and incubated at 37 °C for 10 min. The urease inhibitory activity was estimated by determining ammonia production using the indophenol method. Briefly, 45 µL of phenol reagent (1% w/v phenol and 0.005% w/v sodium nitroprusside) and 70 µL of alkali reagent (0.5% w/v NaOH and 0.1% active chloride NaClO) were added to each well. The absorbance was measured after 50 min at 630 nm using a MultiskanFS microplate reader (Thermo Scientific Inc., Beverly, MA, USA). All reactions were performed in triplicate in a final volume of 200 µL. The pH was maintained at 7.3–7.5 in all assays. DMSO 5% was used as a positive control.

[9] = tested on: Candida albicans; design: method as in doi:10.1007/s11274-009-0062-y; conditions: cited from earlier work
[10] = human, HepG2 hepatocarcinoma cells

## Cc1cc(=O)c2c(C)cc(O)cc2o1 [Compound 4, altechromone A]
[1]; human, HepG2 cells (human hepatocarcinoma), read-out: HepG2 IC50 (cytotoxic effect)
  IC50 at 24 h: > 100 µM
[1]; [10]
  viability at 24 h, 10 µM: 99.2 ± 6.5%
  viability at 24 h, 100 µM: 92.6 ± 4.1%
[1]; rat, H9c2 cardiomyocyte cells
  viability at 24 h, 10 µM: 110 ± 2.9%
  viability at 24 h, 100 µM: 96.5 ± 3.6%
[1]; rat, H9c2 cells (normal rat cardiomyocytes), read-out: H9c2 IC50 (cytotoxic effect)
  IC50 at 24 h: > 100 µM
[2]
  inhibition at 100 µM: 30.1 ± 1.2%
[3]
  inhibition at 100 µM: 11.1 ± 1.3%
[4]
  inhibition at 100 µM: 13.6 ± 0.3%
[5]
  MIC against Pseudomonas fluorescens: 1.8 µg/mL (≈ 9.46 µM)
[6]
  MIC against Bacillus subtilis: 3.9 µg/mL (≈ 20.5 µM)
[7]
  MIC against Escherichia coli: 3.9 µg/mL (≈ 20.5 µM)
[8]
  IC50: > 100 µM
[8]; at concentrations of up to 100 µM
  effect on urease activity: no effect; also recorded: very poor
[9]
  MIC against Candida albicans: 3.9 µg/mL (≈ 20.5 µM)
